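How tested: cells in 96-well plates exposed to compound for 48 hours at five concentrations. Here, GI50 denotes the concentration required for 50% inhibition of growth. At the TGI there is no net growth.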
Tests used:
Assay in all cases: growth of human tumour cells (NCI), 48 h
786-0 renal = tested on: 786-0 renal
A498 renal = tested on: A498 renal
A549 NSCLC = tested on: A549 NSCLC
ACHN renal = tested on: ACHN renal
BT-549 breast = tested on: BT-549 breast
CAKI-1 renal = tested on: CAKI-1 renal
CCRF-CEM leukemia = tested on: CCRF-CEM leukemia
COLO 205 colon = tested on: COLO 205 colon
DU-145 prostate = tested on: DU-145 prostate
EKVX NSCLC = tested on: EKVX NSCLC
HCC-2998 colon = tested on: HCC-2998 colon
HCT-116 colon = tested on: HCT-116 colon
HCT-15 colon = tested on: HCT-15 colon
HL-60(TB) leukemia = tested on: HL-60(TB) leukemia
HOP-62 NSCLC = tested on: HOP-62 NSCLC
HOP-92 NSCLC = tested on: HOP-92 NSCLC
HS 578T breast = tested on: HS 578T breast
HT29 colon = tested on: HT29 colon
IGROV1 ovarian = tested on: IGROV1 ovarian
K-562 leukemia = tested on: K-562 leukemia
KM12 colon = tested on: KM12 colon
LOX IMVI melanoma = tested on: LOX IMVI melanoma
M14 melanoma = tested on: M14 melanoma
MCF7 breast = tested on: MCF7 breast
MDA-MB-231 breast = tested on: MDA-MB-231 breast
MDA-MB-435 = tested on: MDA-MB-435
MOLT-4 leukemia = tested on: MOLT-4 leukemia
NCI-H226 lung = tested on: NCI-H226 lung
NCI-H23 lung = tested on: NCI-H23 lung
NCI-H460 lung = tested on: NCI-H460 lung
NCI-H522 lung = tested on: NCI-H522 lung
NCI/ADR-RES ovarian = tested on: NCI/ADR-RES ovarian
OVCAR-3 ovarian = tested on: OVCAR-3 ovarian
OVCAR-4 ovarian = tested on: OVCAR-4 ovarian
OVCAR-5 ovarian = tested on: OVCAR-5 ovarian
OVCAR-8 ovarian = tested on: OVCAR-8 ovarian
PC-3 prostate = tested on: PC-3 prostate
RPMI-8226 leukemia = tested on: RPMI-8226 leukemia
RXF 393 renal = tested on: RXF 393 renal
SF-268 CNS = tested on: SF-268 CNS
SF-295 CNS = tested on: SF-295 CNS
SF-539 CNS = tested on: SF-539 CNS
SK-MEL-2 melanoma = tested on: SK-MEL-2 melanoma
SK-MEL-28 melanoma = tested on: SK-MEL-28 melanoma
SK-MEL-5 melanoma = tested on: SK-MEL-5 melanoma
SK-OV-3 ovarian = tested on: SK-OV-3 ovarian
SN12C renal = tested on: SN12C renal
SNB-19 CNS = tested on: SNB-19 CNS
SNB-75 CNS = tested on: SNB-75 CNS
SR leukemia = tested on: SR leukemia
SW-620 colon = tested on: SW-620 colon
T-47D breast = tested on: T-47D breast
TK-10 renal = tested on: TK-10 renal
U251 CNS = tested on: U251 CNS
UACC-257 melanoma = tested on: UACC-257 melanoma
UACC-62 melanoma = tested on: UACC-62 melanoma
UO-31 renal = tested on: UO-31 renal

In the case of `CC(C)(C)c1ccc(C(=O)Nc2sc3c(c2C#N)CCC(=O)C3)cc1`, the GI50 (786-0 renal) is reported as 769 nM, the GI50 (A498 renal) is reported as 1660 nM and the TGI (A498 renal) is reported as 5580 nM. For the same molecule, the GI50 (A549 NSCLC) was 980 nM, the TGI (A549 NSCLC) was greater than 100000 nM and the GI50 (ACHN renal) was 237 nM. For the same molecule, the TGI (ACHN renal) was 641 nM, the GI50 (BT-549 breast) was 338 nM and the TGI (BT-549 breast) was 16800 nM. For the same molecule, the GI50 (CAKI-1 renal) was 235 nM, the TGI (CAKI-1 renal) was 793 nM and the GI50 (CCRF-CEM leukemia) was 69.7 nM. It also gave a TGI (CCRF-CEM leukemia) greater than 100000 nM, a GI50 (COLO 205 colon) of 328 nM and a TGI (COLO 205 colon) of 944 nM. For the same molecule, the GI50 (DU-145 prostate) was 5930 nM, the TGI (DU-145 prostate) was greater than 100000 nM and the GI50 (EKVX NSCLC) was 1130 nM. For the same molecule, the TGI (EKVX NSCLC) was greater than 100000 nM, the GI50 (HCC-2998 colon) was 1250 nM and the TGI (HCC-2998 colon) was greater than 100000 nM. For the same molecule, the GI50 (HCT-116 colon) was 122 nM, the GI50 (HCT-15 colon) was 281 nM and the TGI (HCT-15 colon) was 3400 nM. For the same molecule, the GI50 (HL-60(TB) leukemia) was 505 nM, the TGI (HL-60(TB) leukemia) was 1950 nM and the GI50 (HOP-62 NSCLC) was 1240 nM. For the same molecule, the TGI (HOP-62 NSCLC) was greater than 100000 nM, the GI50 (HOP-92 NSCLC) was 1210 nM and the TGI (HOP-92 NSCLC) was 4760 nM. It also gave a GI50 (HS 578T breast) of 339 nM, a TGI (HS 578T breast) greater than 20500 nM and a GI50 (HT29 colon) of 505 nM. For the same molecule, the TGI (HT29 colon) was 3830 nM, the GI50 (IGROV1 ovarian) was 657 nM and the TGI (IGROV1 ovarian) was greater than 20400 nM. It also gave a GI50 (K-562 leukemia) of 87.4 nM, a TGI (K-562 leukemia) greater than 71400 nM and a GI50 (KM12 colon) of 418 nM. It also gave a TGI (KM12 colon) greater than 100000 nM, a GI50 (LOX IMVI melanoma) of 262 nM and a GI50 (M14 melanoma) of 412 nM. The TGI (M14 melanoma) was greater than 83600 nM, the GI50 (MCF7 breast) was 320 nM and the GI50 (MDA-MB-231 breast) was 746 nM. For the same molecule, the TGI (MDA-MB-231 breast) was 3000 nM, the GI50 (MDA-MB-435) was 873 nM and the TGI (MDA-MB-435) was 4820 nM. It also gave a GI50 (MOLT-4 leukemia) of 324 nM, a TGI (MOLT-4 leukemia) greater than 100000 nM and a GI50 (NCI-H226 lung) of 991 nM. For the same molecule, the TGI (NCI-H226 lung) was 5740 nM, the GI50 (NCI-H23 lung) was 443 nM and the TGI (NCI-H23 lung) was greater than 100000 nM. The GI50 (NCI-H460 lung) was 890 nM, the TGI (NCI-H460 lung) was greater than 26000 nM and the GI50 (NCI-H522 lung) was 233 nM. The TGI (NCI-H522 lung) was 1360 nM, the GI50 (NCI/ADR-RES ovarian) was 718 nM and the TGI (NCI/ADR-RES ovarian) was 5750 nM. For the same molecule, the GI50 (OVCAR-3 ovarian) was 473 nM, the TGI (OVCAR-3 ovarian) was 1630 nM and the GI50 (OVCAR-4 ovarian) was 223 nM. For the same molecule, the TGI (OVCAR-4 ovarian) was 687 nM, the GI50 (OVCAR-5 ovarian) was 531 nM and the TGI (OVCAR-5 ovarian) was 5780 nM. For the same molecule, the GI50 (OVCAR-8 ovarian) was 643 nM, the TGI (OVCAR-8 ovarian) was greater than 100000 nM and the GI50 (PC-3 prostate) was 139 nM. It also gave a GI50 (RPMI-8226 leukemia) of 90.2 nM, a TGI (RPMI-8226 leukemia) of 495 nM and a GI50 (RXF 393 renal) of 237 nM. For the same molecule, the TGI (RXF 393 renal) was 796 nM, the GI50 (SF-268 CNS) was 625 nM and the TGI (SF-268 CNS) was greater than 100000 nM. For the same molecule, the GI50 (SF-295 CNS) was 658 nM, the TGI (SF-295 CNS) was greater than 26200 nM and the GI50 (SF-539 CNS) was 209 nM. It also gave a TGI (SF-539 CNS) of 936 nM, a GI50 (SK-MEL-2 melanoma) of 960 nM and a TGI (SK-MEL-2 melanoma) of 2910 nM. The GI50 (SK-MEL-28 melanoma) was 704 nM, the TGI (SK-MEL-28 melanoma) was 5670 nM and the GI50 (SK-MEL-5 melanoma) was 706 nM. It also gave a TGI (SK-MEL-5 melanoma) of 1700 nM, a GI50 (SK-OV-3 ovarian) of 2180 nM and a TGI (SK-OV-3 ovarian) of 9940 nM. It also gave a GI50 (SN12C renal) of 611 nM, a TGI (SN12C renal) greater than 53500 nM and a GI50 (SNB-19 CNS) of 406 nM. It also gave a TGI (SNB-19 CNS) greater than 100000 nM, a GI50 (SNB-75 CNS) of 612 nM and a TGI (SNB-75 CNS) of 2600 nM. The GI50 (SR leukemia) was 149 nM, the TGI (SR leukemia) was greater than 38100 nM and the GI50 (SW-620 colon) was 105 nM. It also gave a TGI (SW-620 colon) of 566 nM, a GI50 (T-47D breast) of 211 nM and a TGI (T-47D breast) of 905 nM. The GI50 (TK-10 renal) was 531 nM, the TGI (TK-10 renal) was 5080 nM and the GI50 (U251 CNS) was 218 nM. The TGI (U251 CNS) was greater than 100000 nM, the GI50 (UACC-257 melanoma) was 690 nM and the TGI (UACC-257 melanoma) was 3470 nM. For the same molecule, the GI50 (UACC-62 melanoma) was 347 nM, the TGI (UACC-62 melanoma) was 2240 nM and the GI50 (UO-31 renal) was 224 nM. For the same molecule, the TGI (UO-31 renal) was 678 nM.
